Data reported in the CheMixHub viscosity set.

Test: xn = mol fraction of the nth substance listed
Details: 101.33 kPa

C[N+](=O)[O-] + CCC(C)O
viscosity [mPa·s]
Details	293.15 K	303.15 K	313.15 K
x2 = 0.05	0.631	0.562	0.508
x2 = 0.1	0.639	0.564	0.504
x2 = 0.15	0.65	0.571	0.506
x2 = 0.2002	0.676	0.584	0.515
x2 = 0.25	0.707	0.605	0.528
x2 = 0.3	0.751	0.633	0.546
x2 = 0.35	0.805	0.666	0.574
x2 = 0.4	0.864	0.705	0.595
x2 = 0.45	0.931	0.751	0.625
x2 = 0.5	0.995	0.798	0.659
x2 = 0.5502	1.081	0.854	0.7
x2 = 0.6	1.169	0.916	0.743
x2 = 0.6499	1.275	0.991	0.796
x2 = 0.7	1.4	1.079	0.857
x2 = 0.75	1.547	1.187	0.933
x2 = 0.8	1.742	1.316	1.03
x2 = 0.85	1.995	1.5	1.14
x2 = 0.9001	2.341	1.703	1.283
x2 = 0.95	2.845	2.02	1.477
